Assay results published in patent US10961200B2, “Small molecule inhibitors of lactate dehydrogenase and methods of use thereof” (THE UNITED STATES OF AMERICA, AS REPRESENTED BY THE …, priority 2014, dated 2021).
Read-outs that look alike come from different tables or passages of the source.

Biological target: Human LDHA (Homo sapiens (Human), UniProt P00338)
Assay: human LDHA primary biochemical assay (resazurin/diaphorase coupled, fluorescence)
Text: Test compounds were placed in a Greiner Bio-One (Monroe, N.C.) 1536-well black solid bottom assay plate. 200 millimolar (mM) Tris HCl, pH 7.4, 100 micromolar […] EDTA and 0.01% TWEEN-20™, final concentration, was used as the assay buffer. The LDHA reagent was 2 nanomolar (nM) Human LDHA (Meridian Life Science, Inc., Memphis, Tenn.), final concentration, in assay buffer.

[1] = read-out: Inhibitory activity IC50
[2] = LDHA inhibitory activity, assay of Example 1, activity level classes

IC50 [1]	SMILES	IC50 [2]
1000 to 57000 nM	N[S+](=O)([O-])c1ccc(Cc2c(Cc3ccccc3)nn(-c3nc(C(=O)O)cs3)c2-c2ccccc2)cc1 [Compound 275]	
1000 to 57000 nM	COc1cc(-c2c(Cc3ccc([S+](N)(=O)[O-])cc3)c(CC3CC3)nn2-c2nc(C(=O)O)cs2)ccc1F [Compound 277]	
1000 to 57000 nM	Cc1ccc(-c2cccc(-c3c(Cc4ccc([S+](N)(=O)[O-])cc4)c(CC4CC4)nn3-c3nc(C(=O)O)cs3)c2)cc1 [Compound 280]	
1000 to 57000 nM	Cc1ccc(-c2cc(-c3c(Cc4ccc([S+](N)(=O)[O-])cc4)c(CC4CC4)nn3-c3nc(C(=O)O)cs3)ccc2F)cc1 [Compound 283]	
1000 to 57000 nM	Cc1ccc(-c2cccc(-c3c(Cc4ccc([S+](N)(=O)[O-])c(F)c4)c(CC4CC4)nn3-c3nc(C(=O)O)cs3)c2)cc1 [Compound 286]	
1000 to 57000 nM	Cc1ccc(-c2cc(-c3c(Cc4ccc([S+](N)(=O)[O-])c(F)c4)c(CC4CC4)nn3-c3nc(C(=O)O)cs3)ccc2F)cc1 [Compound 287]	
1000 to 57000 nM	N[S+](=O)([O-])c1ccc(Cc2c(CC3CC3)nn(-c3nc(C(=O)O)cs3)c2-c2cccc(-c3ccccc3)c2)c(F)c1 [Compound 289]	
1000 to 57000 nM	N[S+](=O)([O-])c1ccc(Cc2c(CC3CC3)nn(-c3nc(C(=O)O)cs3)c2-c2cccc(-c3ccccc3)c2)cc1F [Compound 291]	
1000 to 57000 nM	N[S+](=O)([O-])c1ccc(Cc2c(CC3CC3)nn(-c3nc(C(=O)O)cs3)c2-c2ccc(F)c(-c3ccc(F)cc3)c2)cc1 [Compound 292]	
1000 to 57000 nM	N[S+](=O)([O-])c1ccc(Cc2c(CC3CC3)nn(-c3nc(C(=O)O)cs3)c2-c2ccc(F)c(-c3ccc(C4CC4)cc3)c2)cc1 [Compound 293]	
1000 to 57000 nM	N[S+](=O)([O-])c1ccc(Cc2c(CC3CC3)nn(-c3nc(C(=O)O)cs3)c2-c2ccc(F)c(Br)c2)cc1 [Compound 295]	
1000 to 57000 nM	N[S+](=O)([O-])c1ccc(Cc2c(C3(C(F)(F)F)CC3)nn(-c3nc(C(=O)O)cs3)c2-c2cccc(-c3ccccc3)c2)cc1F [Compound 301]	
1000 to 57000 nM	N[S+](=O)([O-])c1ccc(Cc2c(CC(F)(F)F)nn(-c3nc(C(=O)O)cs3)c2-c2cccc(-c3ccccc3)c2)cc1 [Compound 303]	
1000 to 57000 nM	CC(C)c1ccc(-c2cc(-c3c(Cc4ccc([S+](N)(=O)[O-])cc4)c(CC4CC4)nn3-c3nc(C(=O)O)cs3)ccc2F)cc1 [Compound 305]	
1000 to 57000 nM	N[S+](=O)([O-])c1ccc(Cc2c(CC3CC3)nn(-c3nc(C(=O)O)cs3)c2-c2ccc(F)c(-c3ccc(F)cc3)c2)c(F)c1 [Compound 308]	

Continued, molecule first:

SMILES	IC50 [1]	IC50 [2]
Cc1ccc(-c2cc(-c3c(Cc4ccc(S(N)(=O)=O)c(F)c4)c(CC4CC4)nn3-c3nc(C(=O)O)cs3)ccc2F)s1 [Compound 228, 2-(3-(cyclopropylmethyl)-5-(4-fluoro-3-(5-methylthiophen-2-yl)phenyl)-4-(3-fluoro-4-sulfamoylbenzyl)-1H-pyrazol-1-yl)thiazole-4-carboxylic acid]	> 57000 nM	
NS(=O)(=O)c1ccc(Cc2cn(-c3nc(Br)cs3)nc2-c2ccccc2)cc1 [Compound 235]		1000 to 57000 nM
COc1cccc(-c2cc(-c3c(Cc4ccc([S+](N)(=O)[O-])cc4)c(CC4CC4)nn3-c3nc(C(=O)O)cs3)ccc2F)c1 [Compound 236]		> 57000 nM
N[S+](=O)([O-])c1ccc(Cc2c(CC3CC3)nn(-c3nc(C(=O)O)cs3)c2-c2ccc(F)c(-c3cccc(F)c3)c2)cc1 [Compound 238]	1000 to 57000 nM	
NS(=O)(=O)c1ccc(Cc2c(-c3ccc(F)c(-c4ccc(F)cc4)c3)nn(-c3nc(C(=O)O)cs3)c2C(F)(F)F)cc1 [Compound 240]		< 100 nM
NS(=O)(=O)c1ccc(Cc2c(-c3ccc(F)c(-c4cccc(F)c4)c3)nn(-c3nc(C(=O)O)cs3)c2C(F)(F)F)cc1 [Compound 241]		< 100 nM
COc1cccc(-c2cc(-c3nn(-c4nc(C(=O)O)cs4)c(C(F)(F)F)c3Cc3ccc(S(N)(=O)=O)cc3)ccc2F)c1 [Compound 242]		< 100 nM
Cc1ccc(-c2cc(-c3nn(-c4nc(C(=O)O)cs4)c(C(F)(F)F)c3Cc3ccc(S(N)(=O)=O)cc3)ccc2F)cc1 [Compound 243]		< 100 nM
CCOC(=O)c1csc(-n2nc(-c3cccc(-c4ccccc4)c3)c(Cc3ccc(S(N)(=O)=O)cc3F)c2C2CC2)n1 [Compound 244]		> 57000 nM
CCOC(=O)c1csc(-n2nc(-c3ccc(F)c(-c4ccc(C)cc4)c3)c(Cc3ccc(S(N)(=O)=O)c(F)c3)c2C2CC2)n1 [Compound 245]		1000 to 57000 nM
CCOC(=O)c1csc(-n2nc(-c3ccc(F)c(-c4ccc(F)cc4)c3)c(Cc3ccc(S(N)(=O)=O)c(F)c3)c2C2CC2)n1 [Compound 246]		1000 to 57000 nM
CCOC(=O)c1csc(-n2nc(-c3ccc(F)c(-c4cccc(F)c4)c3)c(Cc3ccc(S(N)(=O)=O)c(F)c3)c2C2CC2)n1 [Compound 247]		1000 to 57000 nM
CCOC(=O)c1csc(-n2nc(-c3ccc(F)c(-c4cccc(OC)c4)c3)c(Cc3ccc(S(N)(=O)=O)c(F)c3)c2C2CC2)n1 [Compound 248]		> 57000 nM
Cc1ccc(-c2cc(-c3nn(-c4nc(C(=O)O)cs4)c(C4CC4)c3Cc3ccc(S(N)(=O)=O)c(F)c3)ccc2F)cc1 [Compound 249]		< 100 nM
NS(=O)(=O)c1ccc(Cc2c(-c3ccc(F)c(-c4ccc(F)cc4)c3)nn(-c3nc(C(=O)O)cs3)c2C2CC2)cc1F [Compound 250]		< 100 nM
Cc1ccc(-c2cc(-c3nn(-c4nc(C(=O)O)cs4)c(C4CC4)c3Cc3ccc(S(N)(=O)=O)cc3F)ccc2F)cc1 [Compound 253]		< 100 nM
NS(=O)(=O)c1ccc(Cc2c(-c3ccc(F)c(-c4ccc(F)cc4)c3)nn(-c3nc(C(=O)O)cs3)c2C2CC2)c(F)c1 [Compound 254]		< 100 nM
NS(=O)(=O)c1ccc(Cc2c(-c3ccc(F)c(-c4cccc(F)c4)c3)nn(-c3nc(C(=O)O)cs3)c2C2CC2)c(F)c1 [Compound 255]		< 100 nM
COc1cccc(-c2cc(-c3nn(-c4nc(C(=O)O)cs4)c(C4CC4)c3Cc3ccc([S+](N)(=O)[O-])cc3F)ccc2F)c1 [Compound 256]		< 100 nM
CC#Cc1cccc(-c2nn(-c3nc(C(=O)O)cs3)c(CC3CC3)c2Cc2ccc(S(N)(=O)=O)c(F)c2)c1 [Compound 270]		< 100 nM
C#Cc1c(Cc2ccc(S(N)(=O)=O)cc2)c(-c2ccccc2)nn1-c1nc(C(=O)O)cs1 [Compound 271]		1000 to 57000 nM
CCOC(=O)c1csc(-n2nc(-c3ccccc3)c(Cc3ccc(S(N)(=O)=O)cc3)c2C2CC2)n1 [Compound 272]		> 57000 nM

SMILES	IC50 [1]	IC50 [2]
CCOC(=O)c1csc(-n2nc(C3CCCCC3)c(Oc3ccc([S+](N)(=O)[O-])cc3)c2-c2ccccc2)n1 [Compound 273]		> 57000 nM
CCOC(=O)c1csc(-n2nc(-c3ccccc3)c(Oc3ccc([S+](N)(=O)[O-])cc3)c2C2CCCCC2)n1 [Compound 274]		> 57000 nM
COc1cc(-c2nn(-c3nc(C(=O)O)cs3)c(CC3CC3)c2Cc2ccc(S(N)(=O)=O)cc2)ccc1F [Compound 278]		< 100 nM
CCOC(=O)c1csc(-n2nc(-c3cccc(-c4ccccc4)c3)c(Cc3ccc(S(N)(=O)=O)cc3)c2CC2CC2)n1 [Compound 279]		1000 to 57000 nM
Cc1ccc(-c2cccc(-c3nn(-c4nc(C(=O)O)cs4)c(CC4CC4)c3Cc3ccc(S(N)(=O)=O)cc3F)c2)cc1 [Compound 282]		< 100 nM
Cc1ccc(-c2cc(-c3c(Cc4ccc(S(N)(=O)=O)cc4F)c(CC4CC4)nn3-c3nc(C(=O)O)cs3)ccc2F)cc1 [Compound 285]		1000 to 57000 nM
CCOC(=O)c1csc(-n2nc(-c3cccc(-c4ccccc4)c3)c(Cc3ccc(S(N)(=O)=O)cc3)c2C2(C(F)(F)F)CC2)n1 [Compound 297]		> 57000 nM
NS(=O)(=O)c1ccc(Cc2c(-c3cccc(-c4ccccc4)c3)nn(-c3nc(C(=O)O)cs3)c2C2(C(F)(F)F)CC2)cc1 [Compound 299]		1000 to 57000 nM
NS(=O)(=O)c1ccc(Cc2c(-c3cccc(-c4ccccc4)c3)nn(-c3nc(C(=O)O)cs3)c2C2(C(F)(F)F)CC2)c(F)c1 [Compound 300]		100 to 1000 nM
NS(=O)(=O)c1ccc(Cc2c(-c3cccc(-c4ccccc4)c3)nn(-c3nc(C(=O)O)cs3)c2C2(C(F)(F)F)CC2)cc1F [Compound 302]		1000 to 57000 nM
Cc1ccc(-c2cccc(-c3nn(-c4nc(C(=O)O)cs4)c(C(F)(F)F)c3Cc3ccc(S(N)(=O)=O)cc3)c2)cc1 [Compound 311]		< 100 nM
N[S+](=O)([O-])c1ccc(Cc2c(-c3cccc(-c4ccc(F)cc4)c3)nn(-c3nc(C(=O)O)cs3)c2C(F)(F)F)cc1 [Compound 312]		< 100 nM
N[S+](=O)([O-])c1ccc(Cc2c(-c3cccc(-c4cccc(F)c4)c3)nn(-c3nc(C(=O)O)cs3)c2C(F)(F)F)cc1 [Compound 313]		< 100 nM
COc1cccc(-c2cccc(-c3nn(-c4nc(C(=O)O)cs4)c(C(F)(F)F)c3Cc3ccc(S(N)(=O)=O)cc3)c2)c1 [Compound 314]		< 100 nM
CCOC(=O)c1csc(-n2nc(CC3CC3)c(Cc3ccc(S(N)(=O)=O)cc3F)c2-c2ccc(F)c(-c3cccc(F)c3)c2)n1 [Compound 315]		> 57000 nM
CCOC(=O)c1csc(-n2nc(-c3ccc(F)c(-c4cccc(F)c4)c3)c(Cc3ccc(S(N)(=O)=O)cc3F)c2CC2CC2)n1 [Compound 316]		1000 to 57000 nM
CCOC(=O)c1csc(-n2nc(CC3CC3)c(Cc3ccc(S(N)(=O)=O)c(F)c3)c2-c2ccc(F)c(-c3cccc(F)c3)c2)n1 [Compound 317]		> 57000 nM
CCOC(=O)c1csc(-n2nc(-c3ccc(F)c(-c4cccc(F)c4)c3)c(Cc3ccc(S(N)(=O)=O)c(F)c3)c2CC2CC2)n1 [Compound 318]		> 57000 nM
CCOC(=O)c1csc(-n2nc(CC3CC3)c(Cc3ccc(S(N)(=O)=O)cc3F)c2-c2ccc(F)c(-c3cccc(OC)c3)c2)n1 [Compound 319]		> 57000 nM
CCOC(=O)c1csc(-n2nc(-c3ccc(F)c(-c4cccc(OC)c4)c3)c(Cc3ccc(S(N)(=O)=O)cc3F)c2CC2CC2)n1 [Compound 320]		> 57000 nM
CCOC(=O)c1csc(-n2nc(CC3CC3)c(Cc3ccc(S(N)(=O)=O)c(F)c3)c2-c2ccc(F)c(-c3cccc(OC)c3)c2)n1 [Compound 321]		> 57000 nM
